# According to US20140155471A1, “TREATING NEUROLOGICAL DISEASE OR INJURY WITH A DYNAMIN-RELATED PROTEIN 1 (DRP1) ENCODING NUCLEIC ACID” (UNIVERSITY OF ROCHESTER, priority 2011, published 2014):
# Key:
# [1] = biological target: T1, mouse dopamine transporter (Mus musculus, UniProt Q61327); assay: Transport studies in cells overexpressing dopamine transporter (MPP+ or DA uptake); type: cell-based; conditions: stable cells overexpressing DAT; substrates MPP+ or DA; mdivi-1 1 or 10 μM
# T1 construct: expressed in transfected cells; host or cells: EM4 cells / HEK 293 cells stably transfected with macrophage scavenger receptor
# T1 sequence (Q61327 whole entry): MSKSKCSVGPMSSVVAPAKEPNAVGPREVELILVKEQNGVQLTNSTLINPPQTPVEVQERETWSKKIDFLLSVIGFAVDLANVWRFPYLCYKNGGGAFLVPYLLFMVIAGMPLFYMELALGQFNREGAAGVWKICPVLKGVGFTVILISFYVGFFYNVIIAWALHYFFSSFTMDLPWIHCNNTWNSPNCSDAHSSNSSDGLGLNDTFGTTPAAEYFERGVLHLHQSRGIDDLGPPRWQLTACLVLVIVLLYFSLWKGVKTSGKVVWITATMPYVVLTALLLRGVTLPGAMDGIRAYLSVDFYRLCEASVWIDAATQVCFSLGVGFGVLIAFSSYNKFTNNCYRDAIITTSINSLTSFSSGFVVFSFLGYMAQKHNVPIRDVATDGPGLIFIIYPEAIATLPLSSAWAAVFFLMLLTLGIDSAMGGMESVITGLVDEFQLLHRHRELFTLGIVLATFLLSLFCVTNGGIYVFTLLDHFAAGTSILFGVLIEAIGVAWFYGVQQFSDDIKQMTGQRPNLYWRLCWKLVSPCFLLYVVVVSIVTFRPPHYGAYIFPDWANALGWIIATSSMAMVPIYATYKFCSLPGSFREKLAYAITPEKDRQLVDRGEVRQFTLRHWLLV
# Experimental: EM4 cells and human embryonic kidney (HEK 293) cells stably transfected with macrophage scavenger to increase their adherence to tissue culture plastic, overexpressing mouse dopamine transporter or empty vector control were grown in 24-well plates. These cells were washed twice and then preincubated for 20 min at 37° C. in Krebs Ringer Hepes (KRH) buffer (125 mM NaCl, 25 mM HEPES, 5.6 mM glucose, 4.8 mM KCl, 1.2 mM KH2PO4, 1.2 mM CaCl2, 1.2 mM MgSO4, pH 7.4), in the presence or absence of mdivi-1 (1, or 10 μM) or GBR12909 (1 μM). This buffer was then replaced with KRH plus or minus MPP+ (200 μM) or dopamine (100 μM), in the presence or absence of mdivi-1 (1, or 10 μM) or GBR12909 (1 μM) for 30 min. To stop the reaction, cells were rinsed with ice-cold buffer and then immediately removed in 5% trichloroacetic acid, sonicated and centrifuged at 15,000 at 4° C. […]. Supernatant was collected for MPP+ and DA quantification using HPLC. Cell pellet was measured for protein concentration using the BCA assay.
# [2] = In vivo microdialysis and HPLC of mdivi-1 in striatal dialysate (blood-brain barrier crossing); parameters: species or system mice
# Experimental: Stereotactic implantation of guide cannula was performed under ketamine/xylazine (65/6 mg/kg i.p.) anesthesia using the following striatal coordinates, relative to bregma: anterior-posterior +0.5 mm, lateral −2.0 mm, dorsal-ventral −1.5 mm (from surface of brain). […] Samples from the same animals were measured for the contents of mdivi-1, MPP+, DA, and its metabolites. Levels of these molecules and the amount of KCl (delivered to the striatum) were calculated on the basis of the standard curves, probe efficiency (˜8%), flow rate, and duration of sample collection as described in Cui et al. “The organic cation transporter-3 is a pivotal modulator of neurodegeneration in the nigrostriatal dopaminergic pathway,” PNAS USA 106: 8043-8048 (2009).
# (§1) A 12-channel CoulArray® (ESA Inc., Chelmsford, Mass.) equipped with a highly sensitive amperometric microbore cell (model 5041, ESA Inc.) was used to analyze the content of DA and its metabolites with the cell potential set at +220 mV as described in Cui et al. For measurements of total striatal DA content, mice were sacrificed and their striata were dissected out and stored at −80° C. until analysis. […] Peaks were detected by an ESA 8 Channel CoulArray® system. […]
# The ability of Mitochondrial Division Inhibitor-1 (mdivi-1), a Drp1 inhibitor, to cross the blood-brain barrier was assessed. […]
# [3] = tested on: MPTP mouse model of PD; assay: MPTP mouse model, neurorescue (treatment 7 days after last MPTP injection); type: in vivo, C57BL/6 mice; conditions: mdivi-1 i.p. twice daily for 3 days starting 7 days after last MPTP injection
# Experimental: (§2) For all studies, 10-12 week old male C57BL/6 mice were randomly assigned to receive intraperitoneal injections of either MPTP (25 mg/kg, Sigma, St. Louis, Mo.) or saline once daily for 5 days. For the neuroprotection studies, mice received twice daily i.p. injections (20 mg/kg) with mdivi-1 beginning on the day of the first MPTP injection and continued until mice were sacrificed 7 days after last MPTP injection. For the neurorescue studies, mice received twice daily i.p. injections (20 mg/kg) with mdivi-1 beginning 7 days after the last MPTP injection and continued for a total of 3 days. To maximize the data yielded from each animal, mice were sacrificed by decapitation and the freshly removed brains were divided into 3 pieces for separate measures of nigrostriatal damage. […]
# (§3) Brains from saline and MPTP treated mice were sectioned (30 μm) and processed for stereological cell counts using the optical fractionator method as described 35. Striatal optical densities of TH immunoreactivity were also quantified.
# Stereotactic implantation of guide cannula was performed under ketamine/xylazine (65/6 mg/kg i.p.) anesthesia using the following striatal coordinates, relative to bregma: anterior-posterior +0.5 mm, lateral −2.0 mm, dorsal-ventral −1.5 mm (from surface of brain). […] Samples from the same animals were measured for the contents of mdivi-1, MPP+, DA, and its metabolites. […]
# [4] = tested on: MPTP mouse model of PD; assay: MPTP mouse model, neuroprotection (active neurodegeneration); type: in vivo, C57BL/6 mice; conditions: mdivi-1 delivered together with MPTP
# Experimental: as §2, with “days.” for “days. To maximize the data yielded from each animal, mice were sacrificed by decapitation and the freshly removed brains were divided into 3 pieces for separate measures of nigrostriatal damage.”
# as §3, §1
# [5] = tested on: Pink1-/- mice; assay: Depolarization (KCl)-evoked striatal DA overflow by in vivo microdialysis in Pink1-/- and Pink1+/+ mice; conditions: mdivi-1 i.p. twice daily for 3 days
# Experimental: Stereotactic implantation of guide cannula was performed under ketamine/xylazine (65/6 mg/kg i.p.) anesthesia using the following striatal coordinates, relative to bregma: anterior-posterior +0.5 mm, lateral −2.0 mm, dorsal-ventral −1.5 mm (from surface of brain). Twenty-four hours after recovery from surgery, a microdialysis probe (2-mm membrane, Bioanalytical Systems, Inc., West Lafayette, Ind.) was inserted into the guide cannula and connected to a low torque-dual channel swivel (Instech Laboratories, Inc., Plymouth Meeting, Pa.) which was connected to a syringe pump perfusing with artificial cerebrospinal fluid (aCSF) at 2 μL/min for all studies except mdivi-1 pharmacokinetic studies where the flow rate was 1 μL/min. […] Samples from the same animals were measured for the contents of mdivi-1, MPP+, DA, and its metabolites.
smiles,measurement,setting,value
"COc1cc(-n2c(S)nc3ccccc3c2=O)c(Cl)cc1Cl [mdivi-1, 3-(2,4-dichloro-5-methoxyphenyl)-2-sulfanyl-4(3H)-quinazolinone]",transport activity of DAT,[1],did not affect
same,time of peak of mdivi-1 in striatal dialysate,[2]; after an i.p. injection,3 h
same,mdivi-1 in the striatal dialysate (ability to cross the blood-brain barrier),"[2]; after i.p. injection, in vivo microdialysis, HPLC",detected
same,evoked DA overflow in MPTP-lesioned mice,[3],improved
same,regeneration of nigral DA neurons terminals or total DA content,[3],absence of promoting regeneration
same,MPTP induced-loss of dopaminergic cell body terminals and DA content,[4],significantly prevented
same,evoked DA overflow in Pink1-/- mice,"[5]; 12 month old Pink1-/- mice, high-KCl aCSF",complete restoration
same,level of evoked DA release in Pink1+/+ mice,[5]; Pink1+/+ mice,did not alter
